Source: article PMC11356819 (Molecules, 2024)

Tests used:
U87-WT cells = experiment: cellular uptake in U87-WT cells; type: cell-based, human; conditions: incubation 1 h
Method: (§1) Consistent with this assumption, uptake of [^18F]4 and, to a lesser extent, the ^18F-fluoroethoxylated analog [^18F]5 by both cell lines was considerably higher than that of (S)-[^18F]2.
(§2) Human glioblastoma cells with a c.395G>A knock-in mutation encoding mIDH1R132H (HTB-14IG™) and the corresponding wildtype cells (HTB-14™) were purchased from the American Type Culture Collection (ATCC). The cells were grown under standard culture conditions (5% CO2 and 95% air at 37 °C) in Eagle’s Minimum Essential Medium (MEM) supplemented with 10% fetal bovine serum (FBS) and antibiotics (penicillin–streptomycin mixed solution, Gibco, Thermo Fisher Scientific, Oberhausen, Germany).
(§3) For the cellular uptake studies, 1.5 × 10^5 cells were seeded into gelatin-coated 12-well transwell plates and incubated in 1 mL MEM (without FBS and antibiotics) containing 18.5 kBq (0.5 µCi) of the corresponding radiotracer. After incubation at 21 °C for 1 h, the supernatant was collected, the cells were lysed with 40 mM NaOH and the radioactivity of both fractions was measured with a gamma counter. The total protein concentration of the cell lysate was measured by a bicinchoninic acid (BCA) assay. The radiotracer uptake was calculated as the ratio of radioactivity in the cell fraction and the supernatant and normalized by protein content (% uptake/100 µg protein). Statistical analysis of the results was performed with Originlab Pro 2023b using two-tailed t-tests with a significance level of 0.05 to identify significant differences between groups.

U87-mIDH tumors = experiment: PET imaging and 2TCM kinetic modelling of subcutaneous U87-mIDH tumors; type: in vivo
Excerpt: (§4) The in vivo tumor uptake and mIDH selectivity of [^18F]4 were investigated by small animal PET imaging in CB17-SCID mice bearing subcutaneous U87-WT and U87-mIDH tumors, which were implanted in the right and left shoulder region, respectively (Figure 6).
(§5) Although the use of an image-derived input function instead of an invasive arterial input function could introduce some degree of systematic bias (due to, e.g., a lack of correction for spill-over and metabolism), this should affect the parameter estimation for both tumors in a given animal in the same manner and therefore have little impact on inter-tumor comparisons.
(§6) Six male CB17-SCID mice (24–26 g) were used for the subcutaneous tumor model. Twenty-four hours before tumor implantation, the animals were injected (i.p.) with 20 µL anti-asialo GM1 rabbit (Fujifilm Wako Chemicals Europe GmbH, Neuss, Germany) in 0.9% NaCl (total volume: 100 µL) to promote tumor cell survival and growth through a temporary reduction in natural killer cell activity. For tumor inoculation, suspensions of 5 × 10^6 tumor cells in 75 µL culture medium and 75 µL Corning Matrigel (Merck, Darmstadt, Germany) were injected subcutaneously into the right (U87-WT cells) and left (U87-mIDH cells) shoulder region.
(§7) The mice were anesthetized with isoflurane (5% for induction, 2% for maintenance) in O2/air (3:7), and a catheter for tracer injection was inserted into the lateral tail vein. They were placed on an animal holder (Medres, Cologne, Germany) and fixed with a tooth bar in a respiratory mask. Body temperature was maintained at 37 °C by warming the animal bed. Eyes were protected from drying with Bepanthen eye and nose ointment (Bayer, Leverkusen, Germany). Respiratory rate was monitored and maintained at around 40–60 breaths per minute by adjusting the isoflurane concentration. A PET scan in list mode was conducted using a Focus 220 micro PET scanner (CTI-Siemens, Erlangen, Germany) with a resolution at the center of the field of view of 1.4 mm. Data acquisition started with intravenous tracer injection and ended after 120 min. This was followed by a 10 min transmission scan using a ^57Co point source for attenuation correction. After the scan was completed, the catheter was removed and the animals were allowed to wake up in their home cage. Data were histogrammed in three ways: (1) 4 × 30 min frames for visual display, (2) 28 frames (2 × 1 min, 2 × 2 min, 6 × 4 min, 18 × 5 min) for determination of time–activity curves, (3) 53 frames (12 × 10 s, 6 × 30 s, 15 × 1 min, 20 × 5 min) for kinetic modelling. Full 3D rebinning was followed by an iterative OSEM3D/MAP reconstruction algorithm with attenuation and decay correction. The resulting voxel sizes were 0.47 mm × 0.47 mm × 0.80 mm.

U87-WT tumors = experiment: PET imaging and 2TCM kinetic modelling of subcutaneous U87-WT tumors; type: in vivo
Excerpt: as §4, §5, §6, §7

[1] = lipophilicity by shake-flask method (n-octanol/water or PBS); type: physicochemical; conditions: triplicate
Method: As a measure for the lipophilicity of the four radiolabeled probes, their partition coefficients (logP) and distribution coefficients at pH 7.4 (logD7.4) were determined by the shake-flask method. Table 1 summarizes the results of these experiments and compares them with the predicted logD7.4 values calculated using the ADMETlab platform.
A solution of the corresponding radiotracer in DMSO (1 µL) was added to a mixture of n-octanol and PBS (pH = 7.4) or water (750 µL of each) in a 2 mL Eppendorf vial and the vial was vortexed for 2 min and centrifuged for another 2 min to separate the two phases. A total of 300 µL of the upper n-octanol phase was then carefully removed from the top, while 300 µL of the aqueous phase was removed by piercing the bottom of the vial with a syringe and cannula to avoid contact with the organic phase. Both fractions were transferred into fresh vials and counted in a gamma counter to determine the ratio between the activity in the organic and the aqueous phase. All measurements were performed in triplicate and the results are expressed as mean ± standard deviation of the logarithm of the partition coefficient between n-octanol and water (logP) or the logarithm of the distribution coefficient between n-octanol and PBS (logD7.4), respectively.

U87-mIDH cells = experiment: cellular uptake in U87-mIDH cells; type: cell-based, human
Method: as §1, §2, §3

## COc1cc(NCc2cc3cc([18F])ccc3[nH]c2=O)ccc1C#N [[^18F]4]
U87-WT cells
  cellular uptake: 4.7 ± 1.4 % per 100 µg protein
U87-mIDH tumors; 0–30 min
  SUVbw U87-mIDH: 31 ± 3
U87-mIDH tumors; 30–60 min
  SUVbw U87-mIDH: 24 ± 2
U87-mIDH tumors; 60–90 min
  SUVbw U87-mIDH: 18 ± 1
U87-mIDH tumors; 90–120 min
  SUVbw U87-mIDH: 16 ± 1
U87-mIDH tumors; U87-mIDH tumor, 2TCM, n = 5
  K1: 0.141 ± 0.047 mL/ccm/min
  K1/k2: 0.246 ± 0.063 mL/ccm
  VS (specific distribution volume): 0.225 ± 0.070 mL/ccm
  VT (total distribution volume): 0.471 ± 0.084 mL/ccm
  k2: 0.578 ± 0.173 min⁻¹
  k3: 0.057 ± 0.040 min⁻¹
  k3/k4, BPND (non-displaceable binding potential): 0.962 ± 0.399 1/1
  k4: 0.053 ± 0.023 min⁻¹
U87-mIDH tumors; peak after 8 min, n = 3
  max. SUVbw U87-mIDH tumors: 35 ± 8
U87-WT tumors; 0–30 min
  Ratio (WT/mIDH) of SUVbw: 1.1
  SUVbw U87-WT: 35 ± 4
U87-WT tumors; 30–60 min
  Ratio (WT/mIDH) of SUVbw: 1.7
  SUVbw U87-WT: 42 ± 9
U87-WT tumors; 60–90 min
  Ratio (WT/mIDH) of SUVbw: 1.9
  SUVbw U87-WT: 36 ± 10
U87-WT tumors; 90–120 min
  Ratio (WT/mIDH) of SUVbw: 1.9
  SUVbw U87-WT: 30 ± 10
U87-WT tumors; U87-WT tumor, 2TCM, n = 5
  K1: 0.174 ± 0.068 mL/ccm/min
  K1/k2: 0.345 ± 0.172 mL/ccm
  VS (specific distribution volume): 0.576 ± 0.143 mL/ccm
  VT (total distribution volume): 0.921 ± 0.250 mL/ccm
  k2: 0.553 ± 0.238 min⁻¹
  k3: 0.089 ± 0.059 min⁻¹
  k3/k4, BPND (non-displaceable binding potential): 1.874 ± 0.653 1/1
  k4: 0.044 ± 0.022 min⁻¹
U87-WT tumors; after 38 min, n = 3
  max. SUVbw U87-WT tumors: 45 ± 8
[1]; n-octanol/PBS pH 7.4, shake-flask, read-out: logD7.4 Exp. Determined
  logD: 2.67 ± 0.04
[1]; n-octanol/water, shake-flask, read-out: logP
  logP: 2.5 ± 0.03
U87-mIDH cells; U87-mIDH and U87-WT cells
  fold higher cellular uptake than (S)-[^18F]2: 5−8 fold
U87-mIDH cells; U87-mIDH cells, incubation 1 h
  cellular uptake: 6.0 ± 2.0 % per 100 µg protein
